Data: PubChem BioAssay AID248 (DTP/NCI, 2004)
Toxic doses and inconclusive results are not listed. Rule as the data show it: active = T/C of 150% or more; inactive = T/C below 125%.

Test system: L1210 leukemia ip in BDF1 mice, survival T/C
Experiment: NCI In Vivo Anticancer Drug Screen. Data for tumor model L1210 Leukemia (intraperitoneal) in B6D2F1 (BDF1) mice
Details: endpoint: mean survival time, higher = longer survival
Method in brief: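 Read-out is survival time, reported as the treated-group measurement over the vehicle-control measurement.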

[1] = dose: 100.0 mg/kg/injection, schedule: Q01DX009 (ip), vehicle: Klucel (hydroxypropylcellulose) (HPC)
[2] = dose: 200.0 mg/kg/injection, schedule: Q01DX009 (ip), vehicle: Klucel (hydroxypropylcellulose) (HPC)
[3] = dose: 400.0 mg/kg/injection, schedule: Q01DX009 (ip), vehicle: Klucel (hydroxypropylcellulose) (HPC)

Measured: T/C

COC(=O)c1c(C)ccc2c(O)c3c(cc12)C(=O)c1c2c(cc(O)c1C3=O)C1(C)OC(C)(O2)C(O)C(N(C)C)C1O (stereo not given)
inactive: dose: 25.0 mg/kg/injection, schedule: Q01DX009 (ip), vehicle: saline 96 % of control | dose: 50.0 mg/kg/injection, schedule: Q01DX009 (ip), vehicle: saline 96 % of control | dose: 100.0 mg/kg/injection, schedule: Q01DX009 (ip), vehicle: saline 104 % of control | dose: 200.0 mg/kg/injection, schedule: Q01DX009 (ip), vehicle: saline 98 % of control | dose: 400.0 mg/kg/injection, schedule: Q01DX009 (ip), vehicle: saline 102 % of control

O=[N+]([O-])c1ccc(F)c(Cl)c1
inactive: dose: 100.0 mg/kg/injection, schedule: Q01DX009 (ip), vehicle: other 98 % of control | dose: 100.0 mg/kg/injection, schedule: Q04DX003 (ip), vehicle: other 105 % of control | dose: 200.0 mg/kg/injection, schedule: Q04DX003 (ip), vehicle: other 100 % of control | dose: 400.0 mg/kg/injection, schedule: Q04DX003 (ip), vehicle: other 90 % of control

Cc1cc(N(CCCl)CCCl)ccc1C=NCCCCN=Cc1ccc(N(CCCl)CCCl)cc1C
inactive: dose: 50.0 mg/kg/injection, schedule: Q01DX001 (ip), vehicle: carboxymethylcellulose (CMC) 104 % of control | dose: 100.0 mg/kg/injection, schedule: Q01DX001 (ip), vehicle: carboxymethylcellulose (CMC) 106 % of control | dose: 200.0 mg/kg/injection, schedule: Q01DX001 (ip), vehicle: carboxymethylcellulose (CMC) 101 % of control | dose: 400.0 mg/kg/injection, schedule: Q01DX001 (ip), vehicle: carboxymethylcellulose (CMC) 101 % of control

OCCN1CCN(c2ccccc2)CC1
inactive: dose: 50.0 mg/kg/injection, schedule: Q04DX003 (ip), vehicle: saline 104 % of control | dose: 100.0 mg/kg/injection, schedule: Q04DX003 (ip), vehicle: saline 113 % of control | dose: 200.0 mg/kg/injection, schedule: Q04DX003 (ip), vehicle: saline 102 % of control

CCCN(CCC)S(=O)(=O)c1ccc(NC(=O)OC(c2ccccc2)(c2ccccc2)c2ccccc2)cc1
inactive: dose: 100.0 mg/kg/injection, schedule: Q01DX001 (ip), vehicle: saline 100 % of control | dose: 200.0 mg/kg/injection, schedule: Q01DX001 (ip), vehicle: saline 97 % of control | dose: 400.0 mg/kg/injection, schedule: Q01DX001 (ip), vehicle: saline 94 % of control

CCCCCc1ccc2oc(=O)c3ccc(C)cc3c2c1O
inactive: [1] 90 % of control | dose: 100.0 mg/kg/injection, schedule: Q04DX003 (ip), vehicle: Klucel (hydroxypropylcellulose) (HPC) 97 % of control | [2] 93 % of control | dose: 200.0 mg/kg/injection, schedule: Q04DX003 (ip), vehicle: Klucel (hydroxypropylcellulose) (HPC) 98 % of control | [3] 97 % of control | dose: 400.0 mg/kg/injection, schedule: Q04DX003 (ip), vehicle: Klucel (hydroxypropylcellulose) (HPC) 97 % of control

COc1ccccc1OCC(O)COC(N)=O (stereo not given)
inactive: dose: 25.0 mg/kg/injection, schedule: Q01DX009 (ip), vehicle: Klucel (hydroxypropylcellulose) (HPC) 100 % of control | dose: 50.0 mg/kg/injection, schedule: Q01DX009 (ip), vehicle: Klucel (hydroxypropylcellulose) (HPC) 103 % of control | [1] 106 % of control | [2] 103 % of control | [3] 106 % of control
